Measurements: paper PMC11520566, “Discovery of pyrazole-based analogs as CDK2 inhibitors with apoptotic-inducing activity: design, synthesis and molecular dynamics study” (RSC Advances, 2024)

How the values were obtained:
NCI-H522 = assay: NCI 60 five dose assay, Non-small cell lung cancer; assay type: cell-based, human
SF-295 = assay: NCI 60 five dose assay, CNS cancer; assay type: cell-based, human
SNB-19 = assay: NCI 60 five dose assay, CNS cancer; assay type: cell-based, human
LOX IMVI = assay: NCI 60 five dose assay, Melanoma; assay type: cell-based, human
SK-MEL-28 = assay: NCI 60 five dose assay, Melanoma; assay type: cell-based, human
SK-MEL-5 = assay: NCI 60 five dose assay, Melanoma; assay type: cell-based, human
OVCAR-8 = assay: NCI 60 five dose assay, Ovarian cancer; assay type: cell-based, human
PC-3 = assay: NCI 60 five dose assay, Prostate cancer; assay type: cell-based, human
NCI-H23 = assay: NCI 60 single dose screen, Non-small cell lung cancer; assay type: cell-based, human; details: single dose 10 μM
Procedure: (§1) The newly synthesized pyrazoles 2a–g, 7a–d, 8a and b, 9, and 10 were submitted to the National Cancer Institute (NCI) Developmental Therapeutics Program (http://www.dtp.nci.nih.gov) for assessment of their potential antiproliferative activity against a panel of NCI 60 cancer cell lines. All compounds were approved for screening against the approved 60 cancer cell lines at a single dose of 10 μM. The human cancer cell lines were derived from 9 variant cancer types including leukemia, melanoma, lung, colon, CNS, ovarian, renal, prostate and breast cancers. The results are presented as percentage of growth inhibition (GI%) of the screened compounds against the full panel of cell lines.
(§2) Under sterile conditions, the cell lines were grown in RPMI 1640 media (Gibco, NY, USA) supplemented with 10% fetal bovine serum (Biocell, CA, USA), and […] cell/mL was used to test the growth inhibition activity of the synthesized compounds. The compounds with concentrations ranging from 0.01 to 100 μM were prepared in phosphate buffer saline. Each compound was initially solubilized in dimethyl sulfoxide (DMSO); however, each final dilution contained less than 1% DMSO. Solutions of different concentrations (0.2 mL) were pipetted into the separate well of a microtiter tray in duplicate. Cell culture (1.8 mL) containing a cell population of […] cells per mL was pipetted into each well. Controls, containing only phosphate buffer saline and DMSO at identical dilutions, were also prepared in the same manner. These cultures were incubated in a humidified incubator at 37 °C. The incubator was supplied with 5% CO2 atmosphere. After 48 h, the cells in each well were diluted 10 times with saline and counted using a Coulter counter. The counts were corrected for the dilution.[34]

NCI-H322M = assay: as above; assay type: cell-based, human; details: single dose 10 μM
Procedure: as §1, §2

NCI-H460 = assay: as above; assay type: cell-based, human; details: single dose 10 μM
Procedure: as §1, §2

KM12 = assay: NCI 60 single dose screen, Colon cancer; assay type: cell-based, human; details: single dose 10 μM
Procedure: as §1, §2

CDK2 = assay: Western blot of CDK2 expression in HCT-116 cells; assay type: cell-based; details: 3 μM, 48 h, vs vehicle treated cells
Excerpt: The method of sodium dodecyl sulfate polyacrylamide gel electrophoresis (SDS-PAGE) is employed to separate proteins based on their size. When combined with western blotting (immunoblotting), both techniques are commonly used to identify the presence and/or relative abundance of a specific protein within a sample containing a complex mixture of proteins.[36] In this process, each sample's total protein content is loaded onto a gel and separated by electrophoresis, allowing proteins to migrate through the gel matrix under the influence of an electric current. To facilitate protein migration, the proteins are initially denatured and given a negative charge by exposure to a detergent like SDS. A molecular weight marker with known-sized bands assists in identifying proteins of interest. […] Typically, the secondary antibody is linked to an enzyme that generates luminescence upon reacting with its substrate. The intensity of the luminescence, directly correlating with the amount of protein that interacted with the antibody, is captured by a Bio-Rad Imager.[36] […]
HCT-116 cells were treated with either 3 μM of compound 4 and 1 μM of compound 9 and incubated 48 h. The cells were lysed by 1× RIPA buffer containing protease and phosphatase inhibitors to quantify the protein concentration by BCA protein assay. […]

[1] = Homo sapiens, read-out: LC50 (the source's name)

CC(=NNc1ccc(S(N)(=O)=O)cc1)c1ccc(NN=C2C(=O)NN=C2Nc2ccccc2)cc1 [Compound 4, 4-(2-(1-(4-(2-(5-oxo-3-(phenylamino)-1,5-dihydro-4H-pyrazol-4-ylidene)hydrazinyl)phenyl)ethylidene)hydrazinyl)benzene sulfonamide]
GI50 (NCI-H522; Homo sapiens): 2.17 µM
CC50 (NCI-H522; [1]): 74.8 µM
Percent Growth (NCI-H522; Log10 Concentration -4.0 Molar): -52%
Percent Growth (NCI-H522; Log10 Concentration -5.0 Molar): -36%
Percent Growth (NCI-H522; Log10 Concentration -6.0 Molar): 94%
Percent Growth (NCI-H522; Log10 Concentration -7.0 Molar): 97%
Percent Growth (NCI-H522; Log10 Concentration -8.0 Molar): 89%
GI50 (SF-295; Homo sapiens): 3.67 µM
CC50 (SF-295; [1]): 38.7 µM
Percent Growth (SF-295; Log10 Concentration -4.0 Molar): -95%
Percent Growth (SF-295; Log10 Concentration -5.0 Molar): 15%
Percent Growth (SF-295; Log10 Concentration -6.0 Molar): 96%
Percent Growth (SF-295; Log10 Concentration -7.0 Molar): 96%
Percent Growth (SF-295; Log10 Concentration -8.0 Molar): 83%
GI50 (SNB-19; Homo sapiens): 2.59 µM
CC50 (SNB-19; [1]): 29.6 µM
Percent Growth (SNB-19; Log10 Concentration -4.0 Molar): -100%
Percent Growth (SNB-19; Log10 Concentration -5.0 Molar): -5%
Percent Growth (SNB-19; Log10 Concentration -6.0 Molar): 89%
Percent Growth (SNB-19; Log10 Concentration -7.0 Molar): 94%
Percent Growth (SNB-19; Log10 Concentration -8.0 Molar): 91%
GI50 (LOX IMVI; Homo sapiens): 2.13 µM
CC50 (LOX IMVI; [1]): 8.81 µM
Percent Growth (LOX IMVI; Log10 Concentration -4.0 Molar): -100%
Percent Growth (LOX IMVI; Log10 Concentration -5.0 Molar): -59%
Percent Growth (LOX IMVI; Log10 Concentration -6.0 Molar): 103%
Percent Growth (LOX IMVI; Log10 Concentration -7.0 Molar): 102%
Percent Growth (LOX IMVI; Log10 Concentration -8.0 Molar): 98%
GI50 (SK-MEL-28; Homo sapiens): 1.91 µM
CC50 (SK-MEL-28; [1]): 6.99 µM
Percent Growth (SK-MEL-28; Log10 Concentration -4.0 Molar): -93%
Percent Growth (SK-MEL-28; Log10 Concentration -5.0 Molar): -78%
Percent Growth (SK-MEL-28; Log10 Concentration -6.0 Molar): 100%
Percent Growth (SK-MEL-28; Log10 Concentration -7.0 Molar): 109%
Percent Growth (SK-MEL-28; Log10 Concentration -8.0 Molar): 96%
GI50 (SK-MEL-5; Homo sapiens): 3.32 µM
CC50 (SK-MEL-5; [1]): 35.8 µM
Percent Growth (SK-MEL-5; Log10 Concentration -4.0 Molar): -100%
Percent Growth (SK-MEL-5; Log10 Concentration -5.0 Molar): 12%
Percent Growth (SK-MEL-5; Log10 Concentration -6.0 Molar): 91%
Percent Growth (SK-MEL-5; Log10 Concentration -7.0 Molar): 100%
Percent Growth (SK-MEL-5; Log10 Concentration -8.0 Molar): 95%
GI50 (OVCAR-8; Homo sapiens): 2.59 µM
CC50 (OVCAR-8; [1]): 29 µM
Percent Growth (OVCAR-8; Log10 Concentration -4.0 Molar): -95%
Percent Growth (OVCAR-8; Log10 Concentration -5.0 Molar): -11%
Percent Growth (OVCAR-8; Log10 Concentration -6.0 Molar): 93%
Percent Growth (OVCAR-8; Log10 Concentration -7.0 Molar): 105%
Percent Growth (OVCAR-8; Log10 Concentration -8.0 Molar): 97%
GI50 (PC-3; Homo sapiens): 3.06 µM
CC50 (PC-3; [1]): 35.8 µM
Percent Growth (PC-3; Log10 Concentration -4.0 Molar): -95%
Percent Growth (PC-3; Log10 Concentration -5.0 Molar): 5%
Percent Growth (PC-3; Log10 Concentration -6.0 Molar): 92%
Percent Growth (PC-3; Log10 Concentration -7.0 Molar): 95%
Percent Growth (PC-3; Log10 Concentration -8.0 Molar): 93%
GI% (NCI-H23): 99.80%
GI% (NCI-H322M): 90.78%
GI% (NCI-H460): 91.13%
GI% (KM12): 96.31%
expression of CDK-2 (western blot) (CDK2): inhibitions in the expression of CDK-2
